Data on one compound can be found in PubChem BioAssay AID504478 (NMMLSC, 2011).

Each structure is given as a SMILES string.

This assay has as its target Serine/threonine-protein kinase SCH9 (Saccharomyces cerevisiae (strain ATCC 204508 / S288c)) (UniProt P11792). Put plainly: reduction of phospho-Sch9 levels in yeast cells – cell-based, HA-Sch9, immunoblot, mechanism study for yeast TOR pathway modulator project, SAR follow-up (AID 504478). The conditions noted are these: S. cerevisiae HA-Sch9, T570 phospho immunoblot, 30 min. In general terms: Immunoblotting shows a protein as a band on a membrane.

Sequence of Serine/threonine-protein kinase SCH9 (Saccharomyces cerevisiae (strain ATCC 204508 / S288c)) (P11792 whole entry, looked up): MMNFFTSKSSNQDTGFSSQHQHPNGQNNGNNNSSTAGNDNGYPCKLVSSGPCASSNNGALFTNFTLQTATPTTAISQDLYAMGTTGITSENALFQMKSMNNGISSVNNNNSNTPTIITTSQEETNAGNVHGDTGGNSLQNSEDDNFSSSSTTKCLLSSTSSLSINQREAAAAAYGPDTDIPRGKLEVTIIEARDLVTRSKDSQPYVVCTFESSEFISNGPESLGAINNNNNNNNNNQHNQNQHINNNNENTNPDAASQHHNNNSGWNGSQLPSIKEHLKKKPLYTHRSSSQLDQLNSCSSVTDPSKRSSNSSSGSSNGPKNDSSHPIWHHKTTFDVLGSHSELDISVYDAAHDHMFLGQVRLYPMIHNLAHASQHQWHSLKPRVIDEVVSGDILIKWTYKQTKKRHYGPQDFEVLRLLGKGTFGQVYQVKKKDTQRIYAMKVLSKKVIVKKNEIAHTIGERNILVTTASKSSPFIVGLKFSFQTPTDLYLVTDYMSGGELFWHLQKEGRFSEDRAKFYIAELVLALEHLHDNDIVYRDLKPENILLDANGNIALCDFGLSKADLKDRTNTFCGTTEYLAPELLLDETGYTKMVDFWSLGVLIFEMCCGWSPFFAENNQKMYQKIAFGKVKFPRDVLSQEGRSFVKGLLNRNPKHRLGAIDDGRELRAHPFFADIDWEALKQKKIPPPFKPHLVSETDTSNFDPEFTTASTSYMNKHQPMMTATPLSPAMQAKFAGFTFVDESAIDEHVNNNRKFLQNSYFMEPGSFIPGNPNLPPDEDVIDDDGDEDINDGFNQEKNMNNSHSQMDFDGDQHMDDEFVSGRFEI

As a reminder, the IC50 is the concentration at which inhibition is half-maximal. For `CNc1nc(N)c([N+](=O)[O-])c(Nc2cccc(F)c2)n1`, the half-inhibitory concentration (IC50) is 4.5 µM.
